US20220387358A1, “CERAMIDE ANALOG SACLAC MODULATES SPHINGOLIPID LEVELS AND MCL-1 SPLICING TO INDUCE APOPTOSIS IN ACUTE MYELOID LEUKEMIA” (University of Virginia Patent Foundation, priority 2019, published 2022)
“And” between values parts separate entries of the source, which are not always exact repeats. Equal entries are not always repeated. Where two headings read alike, the source gives them in different places.

Key:
[1] = Pharmacokinetics, SACLAC in blood/serum by mass spectrometry; assay type: in vivo
Experimental: More particularly, maximum tolerated dose of SACLAC was determined in NOD-scid IL2Rgamma^null (NSG) mice (n=5; Jackson Laboratories, Bar Harbor, Me., United States of America). Mice were injected with SACLAC reconstituted in β-HPCD (IV) daily for 5 days at a dose of 5 mg/kg body weight, respectively. For pharmacokinetics studies, Swiss Webster mice (n=3; Charles River Laboratories, Wilmington, Mass., United States of America) were injected with SACLAC dissolved in DMSO (40 mg/kg body weight, intraperitoneally) or dissolved in β-HPCD (5 mg/kg body weight, via tail-vein injection). Mice were euthanized and blood was harvested at time points ranging from 0 to 48 hours. Serum concentration of SACLAC was measured by mass spectrometry quantification relative to SACLAC standard using the method referenced above.

[2] = system: sphingosine in the liver; test: Sphingosine in the liver after SACLAC administration; assay type: in vivo, Swiss Webster mice
[3] = system: 30 human AML cell lines; test: Cell viability MTS assay, panel of cell lines; assay type: cell-based; conditions: 24 and 48-hour time points
Experimental: For cell viability, cell lines were plated at 2.5×10^4 cells per well in a 96-well plate and treated with […] or DMSO vehicle (0.4% of total volume) for the indicated time points and doses. At the experiment end point, 3-(4,5-Dimethylthiazol-2-yl)-5-(3-carboxymethoxyphenyl)-2-(4-sulfophenyl)-2H-tetrazolium (MTS) Cell Proliferation Colorimetric Assay Kit (# K300-5000, BioVision, Inc., Milpitas, Calif., United States of America) reagent was added and incubated for 2 hours. Conversion of MTS to formazan product was measured by absorbance at 490 nm using a BioTek Cytation 3 plate reader (BioTeck, Winooski, Vt., United States of America). Absorbance was normalized to DMSO control, which was defined as 100% viability. Due to limited cell numbers, patient samples and normal samples were plated at 5×10^3 cells per well in a 384-well plate with […] or DMSO control for the indicated time points and doses. At the experiment end point, a luminescent reagent sold under the tradename [sequence]-GLOTM (#G7572, Promega Corporation, Madison, Wis., United States of America) was added. After 15 minutes, luminescence was read on a BioTek Cytation 3 plate reader (BioTek, Winooski, Vt., United States of America). Absorbance was normalized to DMSO control, which was defined as 100% viability.

[4] = system: THP-1, HL60-VCR and KG1a cell lines; test: Western blot of SF3B1 and Mcl-1S/L in further cell lines; assay type: cell-based, human; conditions: 20 μM SACLAC; 48 hours; all three cell lines
Experimental: Cells were plated at 2.5×10^5 cells per ml in 6-well plates and treated with drug, vehicle or siRNA at the indicated doses and time points. Cells were harvested, washed with PBS and lysed prior to preparation of protein extracts for western blotting.
More particularly, cells were lysed with RIPA buffer (#R0278, Sigma, St. Louis, Mo., United States of America) containing phosphatase inhibitor cocktails 2 and 3 (Sigma #P5726, #P0044) and protease inhibitor cocktail (#P8340, Sigma, St. Louis, Mo., United States of America). Protein was quantified using a bicinchoninic acid (BCA) protein assay kit (#23225, Pierce, Waltham, Mass., United States of America). Samples were resolved on a Bolt 4-12% SDS-PAGE gel (#NW00082, ThermoFisher Scientific, Waltham, Mass., United States of America) and transferred to PVDF membrane (#170-4274, Bio-Rad Laboratories, Hercules, Calif., United States of America). Antibodies were obtained from Cell Signaling Technology (Danvers, Mass., United States of America) unless indicated otherwise. […] Quantification was done using Bio-Rad ImageLab 6.0.1 software (Bio-Rad Laboratories, Hercules, Calif., United States of America). For quantification, bands were normalized to β-actin as a loading control.

[5] = system: human AML cell lines; test: Sphingolipid analysis by LC-ESI-MS/MS (S1P, total ceramide); assay type: cell-based; conditions: 2.5 μM, 24 hours
Experimental: Lipid extraction and analysis was done using liquid chromatography-electrospray ionization-tandem mass spectrometry (LC-ESI-MS/MS) as previously described (22). Cells were plated at 5 million cells per 6 ml and treated with SACLAC or DMSO for 24 hours. Lipids were extracted from cell pellets using an azeotrophic mix of isopropanol: water: ethyl acetate (3:1:6; v:v:v). Internal standards (50 pmol of d17 long-chain bases and C12 acylated sphingolipids) were added to samples at the onset of the extraction procedure. Extracts were separated on a Waters I-class Acquity UPLC chromatography system (Waters Corporation, Milford, Mass., United States of America). Mobile phases were (A) 60:40 water: acetonitrile and (B) 90:10 isopropanol:methanol with both mobile phases containing 5 mM ammonium formate and 0.1% formic acid. A Waters C18 CSH 2.1 mm ID×10 cm column maintained at 65° C. was used for the separation of the sphingoid bases, 1-phosphates, and acylated sphingolipids. The eluate was analyzed with an inline Waters TQ-S mass spectrometer (Waters Corporation, Milford, Mass., United States of America) using multiple reaction monitoring. All data reported are based on monoisotopic mass and are represented as pmol/mg protein.

CCCCCCCCCCCCCCC[C@@H](O)[C@H](CO)NC(=O)CCl [SACLAC, N-[(2S,3R)-1,3-dihydroxyoctadecan-2-yl]2-chloroacetamide]
maximal serum concentration, IV vs IP delivery ([1]; 5 mg/kg i.v. in β-HPCD vs 40 mg/kg i.p. in DMSO): higher maximal serum concentration than IP delivery | half-life in the blood ([1]; 40 mg/kg i.p. in DMSO or 5 mg/kg i.v. in β-HPCD): short half-life | peak serum SACLAC levels ([1]; after changing administration route and vehicle): less than 1 μM | uptake following i.p. injection ([1]; mouse, in vivo, ip): suboptimal uptake | time that liver sphingosine levels were reduced after treatment [2]: at least 6 hours | EC50 ([3]; read-out: average EC50 across 30 human AML cell lines): 3.2 µM | EC50 ([3]; Homo sapiens, 48 h, read-out: average EC50 across 30 human AML cell lines): ~3 µM | EC50 ([3]; Homo sapiens, 48 h, read-out: EC50 of 25 of 30 cell lines, 25 of 30 cell lines): < 5 µM | SF3B1 levels [4]: reduced | ratio of Mcl-1S/L [4]: increased | increase in total ceramide ([5]; HL-60/VCR, THP-1, OCI-AML2): 2.5 fold and 2- to 3 fold | S1P content reduced by ([5]; HL-60/VCR): 87% | S1P levels ([5]; OCI-AML2): below the limit of detection | S1P levels ([5]; THP-1): below the limit of detection
